Measured values reported in patent US20060142254A1, “Antipyretic preparation containing xylitol” (ROQUETTE FRERES, priority 2001, published 2006).

Legend:
[1] = system: rabbits having received a dose of endotoxins equal to 12 EU/kg; experiment: Pyrogen test in rabbits: lowering of the body temperature increase caused by intravenously injected endotoxins; type: in vivo, rabbit; conditions: xylitol 1.5 g/kg, ASPEGIC 100 mg/kg where present; for Difference compared with the positive control of contamination (%): lowering of the endotoxin-induced temperature increase versus Batch 2, endotoxins 12 EU/kg i.v., significant when greater than 5%; for Temperature increase (° C.): mean temperature difference, 3 rabbits per batch, endotoxins 12 EU/kg intravenously
Excerpt: Specifically, the pyrogen test in rabbits is the test described in the European Pharmacopoeia for verifying, in vivo, the apyrogenicity of certain molecules intended to be administered parenterally.
Thus, the applicant company, a producer of molecules intended to be administered parenterally, therefore used this test, which it has perfected, under the conditions described in the European Pharmacopoeia, in order to determine the body temperature-lowering effects of xylitol alone, and of xylitol combined with an antipyretic.
The experiment is carried out with batches of laboratory animals, in this instance here, rabbits.
The solutions to be injected are prepared in sterile water (water for injectable preparation—AGUETTANT).
The bottles of endotoxins (control standard Entotoxin or CSE—ENDOSAFE) contain 5 ml of endotoxins at 30 EU/ml with 120 ml of water for injectable preparation.
The contamination is calculated so as to observe a pyrogenic shock in the rabbit. This contamination is produced by intravenously injecting endotoxins in a proportion of 1.2 EU/ml, i.e. 12 EU/kg.
The antipyretic agent, in this instance aspirin, is prepared extemporaneously. 6.6 ml are added to 125 ml of endotoxins so as to obtain a dose equivalent to 100 mg/kg. The aspirin chosen is injectable ASPEGIC® (DL-lysine acetyl salicylate), manufactured by Laboratoires SYNTHELABO (LE PLESSIS ROBINSON), packed in proportion of 6 bottles of 2 g of powder and 6 vials of 5 ml of water for injectable preparation, for extemporaneous dissolution.
The xylitol is a batch of apyrogenic XYLISORB® manufactured by the applicant company. Apyrogenic dextrose monohydrate (marketed under the trademark LYCADEX® PF by the applicant company) is used as a control.
The rabbits are injected with a solution of xylitol at 150 g/l with water for injectable solution contaminated or not contaminated with the endotoxins. Five experiments are carried out with 3 rabbits per batch.

[2] = system: healthy rabbit; conditions: intravenous administration; cited from earlier work

Compound: CC(=O)Oc1ccccc1C(=O)O (racemic) [Batch 3, DL-lysine acetyl salicylate]
- Difference compared with the positive control of contamination (%) [1]: 46%
- Temperature increase (° C.) [1]: 1.57 °C

Compound: OC[C@@H](O)[C@H](O)[C@@H](O)CO [Batch 4, xylitol]
- Difference compared with the positive control of contamination (%) [1]: 7.5%
- Temperature increase (° C.) [1]: 2.73 °C
- effect on body temperature of the laboratory animal [2]: lowers the body temperature

Compound: methylephedrine
- effect on body temperature of the laboratory animal [2]: lowers the body temperature
